Measurements as given in ChEMBL document CHEMBL1201862, “PubChem BioAssay data set” (2004).
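Cells were grown in 96-well plates and exposed to each compound for 48 hours at five concentrations; endpoints were interpolated linearly between bracketing concentrations, or set to the highest concentration if not reached. The concentration for 50% growth inhibition is given as GI50.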 The source made the active and inactive calls. Cut-off read from the data, not from the text of the source: active = GI50 up to about 1.1 µM and inactive = higher.

Columns and labels:
Assay in all cases: inhibition of tumour cell growth, NCI panel, 48 h
[1] = system: SF-295
[2] = system: NCI-H460
[3] = system: SN12C
[4] = system: OVCAR-8
[5] = system: M14
[6] = system: OVCAR-4
[7] = system: SW-620
[8] = system: RPMI-8226
[9] = system: NCI-H522
[10] = system: SNB-75
[11] = system: SK-MEL-2
[12] = system: U-251
[13] = system: EKVX
[14] = system: K562
[15] = system: SK-MEL-5
[16] = system: UACC-257
[17] = system: UACC-62
[18] = system: LOX IMVI
[19] = system: A549
[20] = system: SNB-19

Measured: GI50

COc1c2c(cc3oc(C)cc(=O)c13)OC(=N)C(C(N)=O)C2CC(=O)c1ccc(N)cc1 (stereo not given)
inactive: [1] > 100 µM | [2] > 100 µM | [3] > 100 µM | [4] > 100 µM | [5] > 100 µM | [6] > 100 µM | [7] > 100 µM | [8] > 100 µM | [9] > 100 µM | [10] > 100 µM | [11] > 100 µM | [12] > 100 µM | [13] > 100 µM | [14] > 100 µM | [15] > 100 µM | [16] > 100 µM | [17] > 100 µM | [18] > 100 µM | [19] > 100 µM | [20] > 100 µM

C[Si](C)(c1ccccc1)[C@H]1CCCC=C1CCNC1c2ccccc2CCc2ccccc21
inactive: [1] 40.6 µM | [2] 61.7 µM | [3] > 100 µM | [4] > 100 µM | [5] 56.5 µM | [6] 41.5 µM | [7] > 100 µM | [8] 46.8 µM | [9] 50.8 µM | [10] 67.3 µM | [11] > 100 µM | [12] > 100 µM | [13] 29.4 µM | [14] 52.1 µM | [15] 33.6 µM | [16] 52.4 µM | [17] 61.4 µM | [18] 70.6 µM | [19] 61.8 µM | [20] > 100 µM

C=CCNC(=S)N/C=C1\C(=O)Oc2ccccc2C1=O
inactive: [1] > 100 µM | [2] > 100 µM | [3] 46.5 µM | [4] 58.5 µM | [5] 63.4 µM | [6] > 100 µM | [7] 74.6 µM | [8] > 100 µM | [9] 65.6 µM | [10] 18.7 µM | [11] 13.2 µM | [12] 59.8 µM | [13] > 100 µM | [14] > 100 µM | [15] 43.8 µM | [16] > 100 µM | [17] 46.3 µM | [18] 95.5 µM | [19] 93.8 µM | [20] 59.4 µM

COc1cc2c(cc1OC)CC(=O)Nc1cc(OC)c(OC)cc1CC2
inactive: [1] 30.3 µM | [2] 39.3 µM | [3] 45.9 µM | [4] 53.8 µM | [5] 36.1 µM | [6] > 53.5 µM | [7] 47.9 µM | [8] 2.89 µM | [9] 17.3 µM | [10] > 59.2 µM | [11] 79.8 µM | [12] 54.7 µM | [13] > 100 µM | [14] 24 µM | [15] 18.5 µM | [16] > 53.7 µM | [17] 36.1 µM | [18] > 82.4 µM | [19] 63 µM | [20] 99.8 µM

C[C@@H]1CC[C@@]2(OC1)O[C@H]1[C@@H](O)[C@H]3[C@@H]4CC[C@H]5C[C@@H](O[C@@H]6O[C@H](CO)[C@H](O[C@@H]7O[C@H](CO)C(O)[C@H](O[C@@H]8OC[C@@H](O)[C@H](O)[C@H]8O)[C@H]7O[C@@H]7O[C@H](CO)[C@H](O)[C@H](O[C@@H]8O[C@H](CO)[C@@H](O)[C@H](O)[C@H]8O)[C@H]7O)[C@H](O)[C@H]6O)[C@H](O)C[C@]5(C)[C@H]4CC[C@]3(C)[C@H]1[C@@H]2C (stereo not given in full) [DIGITONIN]
inactive: [1] 1.82 µM | [2] 1.94 µM | [3] 2.97 µM | [4] 2.02 µM | [5] 12.4 µM | [6] 1.97 µM | [7] 5.52 µM | [8] 3.15 µM | [9] 2.06 µM | [10] 2.83 µM | [11] 3.37 µM | [12] 3.43 µM | [13] 3.13 µM | [14] 3.08 µM | [15] 4.5 µM | [16] 8.38 µM | [17] 4 µM | [18] 3.42 µM | [19] 2.17 µM | [20] 2.07 µM

O=C1c2ccccc2/C(=N\c2ccc3ccccc3c2)C1(C1=C(c2ccccc2)/C(=N/c2ccc3ccccc3c2)c2ccccc21)c1ccccc1 (stereo not given)
inactive: [1] 10.9 µM | [2] 3.32 µM | [3] 9.48 µM | [4] 6.89 µM | [5] 4.02 µM | [6] 5.37 µM | [7] 36.6 µM | [8] 3.64 µM | [9] 5.4 µM | [10] 7.67 µM | [11] 11.9 µM | [12] 9.75 µM | [13] 28.8 µM | [14] 4.22 µM | [15] 2.17 µM | [16] 5.73 µM | [17] 5.15 µM | [18] 4.01 µM | [19] 11.1 µM | [20] 73.3 µM
